# Target: Acetylcholinesterase (Electrophorus electricus, UniProt O42275)
# Test: Inhibition of electric eel AChE after 30 mins by Ellman's method
# Chain of Acetylcholinesterase (O42275 whole entry): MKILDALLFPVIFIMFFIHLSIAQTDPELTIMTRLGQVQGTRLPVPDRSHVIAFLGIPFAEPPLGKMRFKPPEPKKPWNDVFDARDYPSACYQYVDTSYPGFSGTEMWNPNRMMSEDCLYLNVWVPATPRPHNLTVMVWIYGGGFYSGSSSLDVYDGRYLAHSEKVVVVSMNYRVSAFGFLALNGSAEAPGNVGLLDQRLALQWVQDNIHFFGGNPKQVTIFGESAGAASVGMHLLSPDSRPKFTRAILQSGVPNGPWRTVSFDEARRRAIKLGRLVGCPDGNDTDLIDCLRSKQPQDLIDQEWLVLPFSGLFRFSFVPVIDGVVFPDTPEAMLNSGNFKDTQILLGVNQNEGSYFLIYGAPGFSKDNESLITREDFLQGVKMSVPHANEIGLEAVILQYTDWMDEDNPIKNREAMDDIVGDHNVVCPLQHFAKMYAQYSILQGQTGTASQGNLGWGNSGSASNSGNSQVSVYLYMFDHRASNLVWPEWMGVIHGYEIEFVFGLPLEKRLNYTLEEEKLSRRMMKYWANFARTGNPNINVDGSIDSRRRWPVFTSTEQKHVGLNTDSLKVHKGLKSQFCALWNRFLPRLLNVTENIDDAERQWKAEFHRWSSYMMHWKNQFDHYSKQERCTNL
row,SMILES,IC50 [µM]
1,COc1ccc(/C=C2\CN(C)C[C@@]3(C2=O)[C@@H](c2ccc(OC)cc2)[C@@H]2CCCCN2[C@@]32C(=O)c3cccc4cccc2c34)cc1,22.3
2,Cc1ccccc1/C=C1\CN(C)C[C@@]2(C1=O)[C@@H](c1ccccc1C)[C@@H]1CSCN1[C@@]21C(=O)c2cccc3cccc1c23,6.28
3,CN1C/C(=C\c2cccc(Cl)c2Cl)C(=O)[C@]2(C1)[C@@H](c1cccc(Cl)c1Cl)[C@@H]1CCCCN1[C@@]21C(=O)c2cccc3cccc1c23,24.2
4,CN1C/C(=C\c2ccc(F)cc2)C(=O)[C@]2(C1)[C@@H](c1ccc(F)cc1)[C@@H]1CSCN1[C@@]21C(=O)c2cccc3cccc1c23,15.8
5,CN1C/C(=C\c2cccc(F)c2)C(=O)[C@]2(C1)[C@@H](c1cccc(F)c1)[C@@H]1CSCN1[C@@]21C(=O)c2cccc3cccc1c23,11.2
6,CN1C/C(=C\c2ccc([N+](=O)[O-])cc2)C(=O)[C@]2(C1)[C@@H](c1ccc([N+](=O)[O-])cc1)[C@@H]1CSCN1[C@@]21C(=O)c2cccc3cccc1c23,4.56
7,CN1C/C(=C\c2ccccc2)C(=O)[C@]2(C1)[C@@H](c1ccccc1)[C@@H]1CCCCN1[C@@]21C(=O)c2cccc3cccc1c23,18.3
8,Cc1ccc(/C=C2\CN(C)C[C@@]3(C2=O)[C@@H](c2ccc(C)cc2)[C@@H]2CCCCN2[C@@]32C(=O)c3cccc4cccc2c34)cc1,2.24
9,CN1C/C(=C\c2ccccc2F)C(=O)[C@]2(C1)[C@@H](c1ccccc1F)[C@@H]1CCCCN1[C@@]21C(=O)c2cccc3cccc1c23,34.2
10,CN1C/C(=C\c2ccc(Cl)cc2)C(=O)[C@]2(C1)[C@@H](c1ccc(Cl)cc1)[C@@H]1CSCN1[C@@]21C(=O)c2cccc3cccc1c23,11.1
11,COc1ccccc1/C=C1\CN(C)C[C@@]2(C1=O)[C@@H](c1ccccc1OC)[C@@H]1CCCCN1[C@@]21C(=O)c2cccc3cccc1c23,11.6
12,CN1C/C(=C\c2ccccc2Br)C(=O)[C@]2(C1)[C@@H](c1ccccc1Br)[C@@H]1CSCN1[C@@]21C(=O)c2cccc3cccc1c23,10.1
13,CN1C/C(=C\c2cccc(Cl)c2Cl)C(=O)[C@]2(C1)[C@@H](c1cccc(Cl)c1Cl)[C@@H]1CSCN1[C@@]21C(=O)c2cccc3cccc1c23,19.1
14,Cc1ccccc1/C=C1\CN(C)C[C@@]2(C1=O)[C@@H](c1ccccc1C)[C@@H]1CCCCN1[C@@]21C(=O)c2cccc3cccc1c23,3.86
15,CN1C/C(=C\c2ccc(Cl)cc2)C(=O)[C@]2(C1)[C@@H](c1ccc(Cl)cc1)[C@@H]1CCCCN1[C@@]21C(=O)c2cccc3cccc1c23,11.6
16,CN1C/C(=C\c2ccccc2)C(=O)[C@]2(C1)[C@@H](c1ccccc1)[C@@H]1CSCN1[C@@]21C(=O)c2cccc3cccc1c23,16.5
17,CN1C/C(=C\c2ccc(Cl)cc2Cl)C(=O)[C@]2(C1)[C@@H](c1ccc(Cl)cc1Cl)[C@@H]1CSCN1[C@@]21C(=O)c2cccc3cccc1c23,23.2

row,SMILES,IC50 [µM]
1,CN1C/C(=C\c2ccc([N+](=O)[O-])cc2)C(=O)[C@]2(C1)[C@@H](c1ccc([N+](=O)[O-])cc1)[C@@H]1CCCCN1[C@@]21C(=O)c2cccc3cccc1c23,9.16
2,COc1ccc(/C=C2\CN(C)C[C@@]3(C2=O)[C@@H](c2ccc(OC)cc2)[C@@H]2CSCN2[C@@]32C(=O)c3cccc4cccc2c34)cc1,12.3
3,CN1C/C(=C\c2ccc(F)cc2)C(=O)[C@]2(C1)[C@@H](c1ccc(F)cc1)[C@@H]1CCCCN1[C@@]21C(=O)c2cccc3cccc1c23,12.6
4,CN1C/C(=C\c2ccc(Br)cc2)C(=O)[C@]2(C1)[C@@H](c1ccc(Br)cc1)[C@@H]1CCCCN1[C@@]21C(=O)c2cccc3cccc1c23,14.1
5,CN1C/C(=C\c2cccc3ccccc23)C(=O)[C@]2(C1)[C@@H](c1cccc3ccccc13)[C@@H]1CCCCN1[C@@]21C(=O)c2cccc3cccc1c23,3.34
6,CN1C/C(=C\c2ccccc2F)C(=O)[C@]2(C1)[C@@H](c1ccccc1F)[C@@H]1CSCN1[C@@]21C(=O)c2cccc3cccc1c23,12.6
7,CN1C/C(=C\c2cccc3ccccc23)C(=O)[C@]2(C1)[C@@H](c1cccc3ccccc13)[C@@H]1CSCN1[C@@]21C(=O)c2cccc3cccc1c23,9.48
8,CN1C/C(=C\c2ccccc2Br)C(=O)[C@]2(C1)[C@@H](c1ccccc1Br)[C@@H]1CCCCN1[C@@]21C(=O)c2cccc3cccc1c23,38.3
9,CN1C/C(=C\c2ccccc2Cl)C(=O)[C@]2(C1)[C@@H](c1ccccc1Cl)[C@@H]1CSCN1[C@@]21C(=O)c2cccc3cccc1c23,12.2
10,CN1C/C(=C\c2cccc(F)c2)C(=O)[C@]2(C1)[C@@H](c1cccc(F)c1)[C@@H]1CCCCN1[C@@]21C(=O)c2cccc3cccc1c23,32.6
11,Cc1ccc(/C=C2\CN(C)C[C@@]3(C2=O)[C@@H](c2ccc(C)cc2)[C@@H]2CSCN2[C@@]32C(=O)c3cccc4cccc2c34)cc1,1.86
12,CN1C/C(=C\c2ccccc2Cl)C(=O)[C@]2(C1)[C@@H](c1ccccc1Cl)[C@@H]1CCCCN1[C@@]21C(=O)c2cccc3cccc1c23,21.3
13,CN1C/C(=C\c2ccc(Cl)cc2Cl)C(=O)[C@]2(C1)[C@@H](c1ccc(Cl)cc1Cl)[C@@H]1CCCCN1[C@@]21C(=O)c2cccc3cccc1c23,17.3
14,CN1C/C(=C\c2cccc([N+](=O)[O-])c2)C(=O)[C@]2(C1)[C@@H](c1cccc([N+](=O)[O-])c1)[C@@H]1CCCCN1[C@@]21C(=O)c2cccc3cccc1c23,25.1
15,CN1C/C(=C\c2cccc([N+](=O)[O-])c2)C(=O)[C@]2(C1)[C@@H](c1cccc([N+](=O)[O-])c1)[C@@H]1CSCN1[C@@]21C(=O)c2cccc3cccc1c23,8.1
16,CN1C/C(=C\c2ccc(Br)cc2)C(=O)[C@]2(C1)[C@@H](c1ccc(Br)cc1)[C@@H]1CSCN1[C@@]21C(=O)c2cccc3cccc1c23,20.3

# Reference: ChEMBL document CHEMBL2401706, “An atom economic synthesis and AChE inhibitory activity of novel dispiro 7-aryltetrahydro-1H-pyrrolo[1,2-c][1,3]thiazole and 4-aryloctahydroindolizine N-methylpiperidin-4-one hybrid heterocycles” (Eur J Med Chem, 2013)
